Patent US11226337B2, “Chemoproteomic profiling of protein electrophilic and oxidative post-translational modifications” (Zenagem, LLC, priority 2017, dated 2022)

How the values were obtained:
Test in all cases: SILAC RP-ABPP
Type in all cases: cell-based
[1] = target: T1, BCAT1 Branchedchainaminoacid (P54687) (Homo sapiens, UniProt P54687); conditions: SILAC H/L, MDA-MB-231
T1 construct: endogenous in cells; host or cells: HEK293T or MDA-MB-231
Method in brief: (§1)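 Heavy SILAC HEK293T or MDA-MB-231 cells were treated with a clickable hydrazine probe; light cells received the non-clickable analogue (enrichment) or the probe plus 10-fold excess non-clickable competitor (competition). Mixed proteomes underwent CuAAC with 100 μM biotin-azide for 1 h. Heavy:light ratios were taken as median peptide ratios (≥3 peptides) averaged over ≥3 replicates.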

[2] = target: T2, FADS1 Fatty acid desaturase 1 (O60427) (Homo sapiens, UniProt O60427); conditions: SILAC H/L, HEK293T
T2 construct: In Situ Labelling of Cells with Hydrazine Probes for MS Experiments; endogenous in cells; host or cells: HEK293T and/or MDA-MB-231
Method in brief: as §1

[3] = target: T3, P4HA2 Prolyl 4hydroxylase subunit alpha2 (O15460) (Homo sapiens, UniProt O15460); conditions: SILAC H/L, MDA-MB-231
T3 construct: endogenous in cells; host or cells: HEK293T or MDA-MB-231
T3 sequence (O15460 22-535): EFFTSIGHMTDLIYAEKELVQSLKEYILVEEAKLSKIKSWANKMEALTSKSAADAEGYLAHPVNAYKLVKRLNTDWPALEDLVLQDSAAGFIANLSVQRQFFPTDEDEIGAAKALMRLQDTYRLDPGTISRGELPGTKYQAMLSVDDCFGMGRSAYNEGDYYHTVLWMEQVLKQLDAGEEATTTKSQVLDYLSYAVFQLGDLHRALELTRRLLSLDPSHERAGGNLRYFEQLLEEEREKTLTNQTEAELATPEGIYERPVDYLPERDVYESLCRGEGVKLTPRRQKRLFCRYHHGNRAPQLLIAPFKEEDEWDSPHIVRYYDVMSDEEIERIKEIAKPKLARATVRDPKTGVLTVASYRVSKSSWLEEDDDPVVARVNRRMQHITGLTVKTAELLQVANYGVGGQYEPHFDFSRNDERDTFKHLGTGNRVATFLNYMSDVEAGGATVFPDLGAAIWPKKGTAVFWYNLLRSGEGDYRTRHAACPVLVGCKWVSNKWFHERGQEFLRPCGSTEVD
T3 sequence (P07237 18-508 partner): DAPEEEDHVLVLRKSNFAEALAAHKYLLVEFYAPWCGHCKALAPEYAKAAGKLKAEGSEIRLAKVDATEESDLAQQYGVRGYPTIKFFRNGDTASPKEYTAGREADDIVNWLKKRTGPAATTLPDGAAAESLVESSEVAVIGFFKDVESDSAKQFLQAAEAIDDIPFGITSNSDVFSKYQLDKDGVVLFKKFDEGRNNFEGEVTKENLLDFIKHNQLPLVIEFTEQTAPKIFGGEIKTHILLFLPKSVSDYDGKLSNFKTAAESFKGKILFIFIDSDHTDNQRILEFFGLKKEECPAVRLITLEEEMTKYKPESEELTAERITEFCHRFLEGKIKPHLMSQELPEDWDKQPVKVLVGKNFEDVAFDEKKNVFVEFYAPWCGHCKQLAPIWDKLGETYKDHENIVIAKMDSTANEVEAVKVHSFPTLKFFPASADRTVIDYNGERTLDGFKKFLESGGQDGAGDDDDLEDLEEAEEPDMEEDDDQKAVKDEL
Method in brief: as §1

[4] = target: T4, PTGR2 Prostaglandin reductase 2 (Q8N8N7) (Homo sapiens, UniProt Q8N8N7); conditions: SILAC H/L, MDA-MB-231
T4 construct: endogenous in cells; host or cells: HEK293T or MDA-MB-231
T4 sequence (Q8N8N7 whole entry): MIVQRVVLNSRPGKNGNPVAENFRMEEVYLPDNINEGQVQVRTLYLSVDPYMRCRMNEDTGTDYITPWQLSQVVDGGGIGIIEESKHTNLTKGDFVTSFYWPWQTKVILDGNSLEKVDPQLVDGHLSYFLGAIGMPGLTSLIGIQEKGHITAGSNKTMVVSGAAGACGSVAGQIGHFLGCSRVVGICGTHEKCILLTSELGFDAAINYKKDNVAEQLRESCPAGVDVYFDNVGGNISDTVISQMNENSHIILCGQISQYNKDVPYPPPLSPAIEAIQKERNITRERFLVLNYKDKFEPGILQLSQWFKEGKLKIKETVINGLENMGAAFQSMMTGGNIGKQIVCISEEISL
Method in brief: as §1

[5] = target: T5, PHYHD1 PhytanoylCoA dioxygenase (Q5SRE7) (Homo sapiens, UniProt Q5SRE7); conditions: SILAC H/L, MDA-MB-231
T5 construct: In Situ Labelling of Cells with Hydrazine Probes for MS Experiments; endogenous in cells; host or cells: HEK293T and/or MDA-MB-231
T5 sequence (Q5SRE7 whole entry): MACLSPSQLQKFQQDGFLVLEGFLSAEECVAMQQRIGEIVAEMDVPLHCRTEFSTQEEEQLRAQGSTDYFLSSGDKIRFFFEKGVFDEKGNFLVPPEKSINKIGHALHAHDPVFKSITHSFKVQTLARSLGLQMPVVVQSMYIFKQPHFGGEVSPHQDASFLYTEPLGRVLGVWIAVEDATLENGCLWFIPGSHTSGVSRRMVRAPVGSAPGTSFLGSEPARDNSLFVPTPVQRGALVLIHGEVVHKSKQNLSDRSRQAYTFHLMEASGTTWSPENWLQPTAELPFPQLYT
Method in brief: as §1

[6] = target: T6, RAB14 Rasrelated protein Rab14 (P61106) (Homo sapiens, UniProt P61106); conditions: SILAC H/L, MDA-MB-231
T6 construct: endogenous in cells; host or cells: HEK293T or MDA-MB-231
T6 sequence (P61106 whole entry): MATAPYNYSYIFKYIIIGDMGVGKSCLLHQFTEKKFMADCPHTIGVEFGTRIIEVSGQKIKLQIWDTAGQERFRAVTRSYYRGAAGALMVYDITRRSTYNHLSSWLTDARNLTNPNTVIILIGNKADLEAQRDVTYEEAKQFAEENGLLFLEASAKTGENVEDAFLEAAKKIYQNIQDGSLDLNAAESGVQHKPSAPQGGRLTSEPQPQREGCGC
Method in brief: as §1

[7] = target: T7, SELENBP1 Seleniumbinding protein 1 (Q13228) (Homo sapiens, UniProt Q13228); conditions: SILAC H/L, MDA-MB-231
T7 construct: endogenous in cells; host or cells: HEK293T or MDA-MB-231
T7 sequence (Q13228 whole entry): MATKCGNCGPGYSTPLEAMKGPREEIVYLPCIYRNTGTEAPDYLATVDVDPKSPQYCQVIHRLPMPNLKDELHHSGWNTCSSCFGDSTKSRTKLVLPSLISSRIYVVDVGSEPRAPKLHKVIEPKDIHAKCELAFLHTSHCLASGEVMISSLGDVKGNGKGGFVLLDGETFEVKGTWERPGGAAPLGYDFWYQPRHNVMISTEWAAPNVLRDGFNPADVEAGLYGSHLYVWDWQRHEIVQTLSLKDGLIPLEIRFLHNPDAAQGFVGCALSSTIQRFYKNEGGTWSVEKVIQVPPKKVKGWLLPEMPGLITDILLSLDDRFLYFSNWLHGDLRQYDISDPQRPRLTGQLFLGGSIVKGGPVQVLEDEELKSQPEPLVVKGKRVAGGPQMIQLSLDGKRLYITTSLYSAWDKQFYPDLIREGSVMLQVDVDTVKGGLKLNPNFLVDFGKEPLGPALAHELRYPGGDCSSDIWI
Method in brief: as §1

[8] = target: T8, CYCS Cytochrome c (P99999) (Homo sapiens, UniProt P99999); conditions: SILAC H/L, HEK293T
T8 construct: In Situ Labelling of Cells with Hydrazine Probes for MS Experiments; endogenous in cells; host or cells: HEK293T and/or MDA-MB-231
T8 sequence (P99999 whole entry): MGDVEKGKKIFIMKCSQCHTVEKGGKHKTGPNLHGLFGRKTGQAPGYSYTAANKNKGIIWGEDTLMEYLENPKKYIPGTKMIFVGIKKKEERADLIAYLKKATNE
Method in brief: as §1

[9] = target: T9, PLBD2 Putative phospholipase Blike 2 (Q8NHP8) (Homo sapiens, UniProt Q8NHP8); conditions: SILAC H/L, MDA-MB-231
T9 construct: endogenous in cells; host or cells: HEK293T or MDA-MB-231
Method in brief: as §1

[10] = target: T10, CPD Carboxypeptidase D (O75976) (Homo sapiens, UniProt O75976); conditions: SILAC H/L, MDA-MB-231
T10 construct: In Situ Labelling of Cells with Hydrazine Probes for MS Experiments; endogenous in cells; host or cells: HEK293T and/or MDA-MB-231
T10 sequence (O75976 32-1380): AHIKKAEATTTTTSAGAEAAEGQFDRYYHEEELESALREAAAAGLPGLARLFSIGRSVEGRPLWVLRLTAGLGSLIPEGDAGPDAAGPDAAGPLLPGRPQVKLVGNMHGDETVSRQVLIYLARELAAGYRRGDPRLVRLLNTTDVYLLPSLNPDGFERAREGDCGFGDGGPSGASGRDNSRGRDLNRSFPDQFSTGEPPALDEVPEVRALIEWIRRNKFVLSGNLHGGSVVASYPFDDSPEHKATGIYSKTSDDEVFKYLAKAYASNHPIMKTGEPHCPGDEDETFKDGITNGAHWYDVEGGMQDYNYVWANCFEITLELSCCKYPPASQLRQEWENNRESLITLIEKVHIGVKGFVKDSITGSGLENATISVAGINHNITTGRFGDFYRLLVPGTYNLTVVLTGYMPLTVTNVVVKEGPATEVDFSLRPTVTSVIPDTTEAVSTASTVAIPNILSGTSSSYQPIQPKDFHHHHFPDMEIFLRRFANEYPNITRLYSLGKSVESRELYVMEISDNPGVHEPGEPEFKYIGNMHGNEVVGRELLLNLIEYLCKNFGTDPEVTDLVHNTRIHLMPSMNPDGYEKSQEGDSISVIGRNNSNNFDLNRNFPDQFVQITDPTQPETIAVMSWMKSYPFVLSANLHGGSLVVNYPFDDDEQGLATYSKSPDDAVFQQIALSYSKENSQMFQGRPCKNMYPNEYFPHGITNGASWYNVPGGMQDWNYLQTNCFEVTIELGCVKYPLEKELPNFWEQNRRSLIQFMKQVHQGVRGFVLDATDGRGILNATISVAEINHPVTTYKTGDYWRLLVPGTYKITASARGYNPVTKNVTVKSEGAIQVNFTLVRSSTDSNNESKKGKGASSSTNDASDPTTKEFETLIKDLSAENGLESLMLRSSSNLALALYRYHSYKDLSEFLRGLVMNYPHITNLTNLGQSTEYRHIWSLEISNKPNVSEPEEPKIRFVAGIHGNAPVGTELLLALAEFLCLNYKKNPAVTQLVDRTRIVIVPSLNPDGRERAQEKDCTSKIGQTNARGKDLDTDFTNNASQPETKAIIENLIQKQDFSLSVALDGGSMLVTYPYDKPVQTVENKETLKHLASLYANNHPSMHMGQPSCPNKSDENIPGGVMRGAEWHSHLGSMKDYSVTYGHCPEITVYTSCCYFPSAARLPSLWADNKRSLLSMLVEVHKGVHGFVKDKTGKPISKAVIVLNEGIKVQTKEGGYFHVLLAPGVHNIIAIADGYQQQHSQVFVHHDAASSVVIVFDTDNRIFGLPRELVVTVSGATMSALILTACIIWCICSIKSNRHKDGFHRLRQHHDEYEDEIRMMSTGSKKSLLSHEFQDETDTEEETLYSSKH
Method in brief: as §1

[11] = target: T11, SCD AcylCoA desaturase (O00767) (Homo sapiens, UniProt O00767); conditions: SILAC H/L, HEK293T
T11 construct: In Situ Labelling of Cells with Hydrazine Probes for MS Experiments; endogenous in cells
T11 sequence (O00767 whole entry): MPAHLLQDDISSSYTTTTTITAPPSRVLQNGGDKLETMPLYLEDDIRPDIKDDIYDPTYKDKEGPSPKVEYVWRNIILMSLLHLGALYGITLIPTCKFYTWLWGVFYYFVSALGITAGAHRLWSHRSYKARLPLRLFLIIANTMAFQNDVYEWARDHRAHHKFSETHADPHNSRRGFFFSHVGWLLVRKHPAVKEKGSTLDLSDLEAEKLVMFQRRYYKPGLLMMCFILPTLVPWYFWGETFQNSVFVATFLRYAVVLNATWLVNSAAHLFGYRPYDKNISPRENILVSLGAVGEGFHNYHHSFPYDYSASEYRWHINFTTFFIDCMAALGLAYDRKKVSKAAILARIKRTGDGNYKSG
Method in brief: as §1

[12] = target: T12, ACOX1 Peroxisomal acylcoenzyme A oxidase 1 (Q15067) (Homo sapiens, UniProt Q15067); conditions: SILAC H/L, HEK293T
T12 construct: In Situ Labelling of Cells with Hydrazine Probes for MS Experiments; endogenous in cells; host or cells: HEK293T and/or MDA-MB-231
T12 sequence (Q15067 whole entry): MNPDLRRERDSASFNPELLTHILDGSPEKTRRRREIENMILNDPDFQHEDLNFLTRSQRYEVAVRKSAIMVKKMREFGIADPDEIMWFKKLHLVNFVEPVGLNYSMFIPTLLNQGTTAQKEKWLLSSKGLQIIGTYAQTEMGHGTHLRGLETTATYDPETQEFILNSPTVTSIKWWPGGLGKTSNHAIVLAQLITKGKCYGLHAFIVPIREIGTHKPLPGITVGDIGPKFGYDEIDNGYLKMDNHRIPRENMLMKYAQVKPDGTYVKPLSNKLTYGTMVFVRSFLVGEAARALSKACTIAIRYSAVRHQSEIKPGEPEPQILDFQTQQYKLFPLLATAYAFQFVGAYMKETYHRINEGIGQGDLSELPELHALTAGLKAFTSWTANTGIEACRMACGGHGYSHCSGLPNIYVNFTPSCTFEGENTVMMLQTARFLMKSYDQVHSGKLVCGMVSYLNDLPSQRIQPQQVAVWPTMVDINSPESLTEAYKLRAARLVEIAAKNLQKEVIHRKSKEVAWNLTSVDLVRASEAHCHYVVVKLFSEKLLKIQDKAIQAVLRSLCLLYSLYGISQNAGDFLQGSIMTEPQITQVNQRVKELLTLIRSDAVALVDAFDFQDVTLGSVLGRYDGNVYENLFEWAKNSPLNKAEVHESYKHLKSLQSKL
Method in brief: as §1

[13] = target: T13, KDM5C Lysinespecific demethylase 5C (P41229) (Homo sapiens, UniProt P41229); conditions: SILAC H/L, HEK293T
T13 construct: In Situ Labelling of Cells with Hydrazine Probes for MS Experiments; endogenous in cells; host or cells: HEK293T and/or MDA-MB-231
Method in brief: as §1

[14] = target: T14, ALKBH1 Alkylated DNA repair protein alkB (Q13686) (Homo sapiens, UniProt Q13686); conditions: SILAC H/L, HEK293T
T14 construct: In Situ Labelling of Cells with Hydrazine Probes for MS Experiments; endogenous in cells
Method in brief: as §1

Q: Which enrichment ratioavg ([1]; probe 2 1 mM 0.5 h vs probe 4) does the source give for `C#CCCNC(=O)c1ccc(NN)cc1.Cl` [probe 2, N-(but-3-yn-1-yl)-4-hydrazinylbenzamide hydrochloride] here?
A: 20

Q: And the competition ratioavg ([1]; probe 2 vs probe 2+10x probe 4)?
A: 2

Q: And the enrichment ratioavg ([2]; probe 2 1 mM 0.5 h vs probe 4)?
A: 20

Q: And the competition ratioavg ([2]; probe 2 vs probe 2+10x probe 4)?
A: 4

Q: What about the enrichment ratioavg ([3]; probe 2 1 mM 0.5 h vs probe 4) of the same molecule?
A: 20

Q: What about the competition ratioavg ([3]; probe 2 vs probe 2+10x probe 4) of the same molecule?
A: 3

Q: And the enrichment ratioavg ([4]; probe 2 1 mM 0.5 h vs probe 4)?
A: 15

Q: And the competition ratioavg ([4]; probe 2 vs probe 2+10x probe 4)?
A: 1

Q: What about the enrichment ratioavg ([5]; probe 2 1 mM 0.5 h vs probe 4) of the same molecule?
A: 14

Q: And the competition ratioavg ([5]; probe 2 vs probe 2+10x probe 4)?
A: 5

Q: What about the enrichment ratioavg ([6]; probe 2 1 mM 0.5 h vs probe 4) of the same molecule?
A: 5

Q: And the competition ratioavg ([6]; probe 2 vs probe 2+10x probe 4)?
A: 3

Q: And the enrichment ratioavg ([7]; probe 2 1 mM 0.5 h vs probe 4)?
A: 20

Q: And the competition ratioavg ([7]; probe 2 vs probe 2+10x probe 4)?
A: 3

Q: What about the enrichment ratioavg ([8]; probe 2 1 mM 0.5 h vs probe 4) of the same molecule?
A: 7

Q: What about the competition ratioavg ([8]; probe 2 vs probe 2+10x probe 4) of the same molecule?
A: 0

Q: And the enrichment ratioavg ([9]; probe 2 1 mM 0.5 h vs probe 4)?
A: 9

Q: And the competition ratioavg ([9]; probe 2 vs probe 2+10x probe 4)?
A: 3

Q: And the enrichment ratioavg ([10]; probe 2 1 mM 0.5 h vs probe 4)?
A: 20

Q: What about the competition ratioavg ([10]; probe 2 vs probe 2+10x probe 4) of the same molecule?
A: 15

Q: What about the enrichment ratioavg ([11]; probe 2 1 mM 0.5 h vs probe 4) of the same molecule?
A: 20

Q: What about the competition ratioavg ([11]; probe 2 vs probe 2+10x probe 4) of the same molecule?
A: 9

Q: What about the enrichment ratioavg ([12]; probe 2 1 mM 0.5 h vs probe 4) of the same molecule?
A: 19

Q: And the competition ratioavg ([12]; probe 2 vs probe 2+10x probe 4)?
A: 2

Q: What about the enrichment ratioavg ([13]; probe 2 1 mM 0.5 h vs probe 4) of the same molecule?
A: 19

Q: What about the competition ratioavg ([13]; probe 2 vs probe 2+10x probe 4) of the same molecule?
A: 3

Q: What about the enrichment ratioavg ([14]; probe 2 1 mM 0.5 h vs probe 4) of the same molecule?
A: 20

Q: What about the competition ratioavg ([14]; probe 2 vs probe 2+10x probe 4) of the same molecule?
A: 8
